In ChEMBL document CHEMBL6134890, “Terminally Symmetric β-Turn Peptides for Multidrug-Resistant Bacterial Infections” (J Med Chem, 2025):
Converted amounts (≈) assume the structure as drawn. The source made the active and inactive calls. The calls are words filed in the database; no cut-off is given here. Peptide text beside a SMILES is read from it.

Columns and labels:
Escherichia coli [1] = assay: Antibacterial activity against Escherichia coli […] at sub-inhibitory concentration measured after 15 passages for 18 hrs; type: functional, organism-based
[2] = tested on: Staphylococcus epidermidis; assay: Antimicrobial activity against multi-drug resistant Staphylococcus epidermidis assessed as reduction in bacterial growth by broth dilution method; type: functional
Escherichia coli [3] = assay: Antibacterial activity against Escherichia coli ATCC 25922 infected in male Kunming mouse model assessed as reduction in bacterial load measured after 11 days in presence of levofloxacin; type: functional, organism-based; details: time 11.0 day
Escherichia coli [4] = assay: Antibacterial activity against multidrug resistant Escherichia coli infected in male Kunming mouse model assessed as reduction in IL-6 expression by immunochemical analysis; type: functional, organism-based
Cell membrane [5] = assay: Induction of cytoplasmic membrane depolarization in multi-drug resistant Staphylococcus aureus at 1 to 4 times MIC measured within 1 min by DiSC3-5 fluorescent dye based analysis
Escherichia coli [6] = assay: Antimicrobial activity against multi-drug resistant Escherichia coli assessed as reduction in bacterial growth in presence of KCl; type: functional, organism-based
Staphylococcus aureus [7] = assay: Antimicrobial activity against multi-drug resistant Staphylococcus aureus assessed as reduction in bacterial growth at 2 times MIC measured after 1 hrs in presence of chymotrypsin by microplate reader based analysis; type: functional, organism-based
Cell membrane [8] = assay: Induction of outer membrane permeabilization in multi-drug resistant Escherichia coli assessed as NPN uptake at 1 to 4 times MIC measured within 1 min by fluorescence based analysis; type: subcellular
Escherichia coli [9] = assay: Antibacterial activity against multidrug resistant Escherichia coli infected in male Kunming mouse model assessed as reduction in wound size measured after 3 to 5 days in presence of levofloxacin by caliper method; type: functional, organism-based; details: time 3-5 day
Staphylococcus aureus [10] = assay: Antimicrobial activity against multi-drug resistant Staphylococcus aureus assessed as reduction in bacterial growth in presence of MgCl2; type: functional, organism-based
L02 = assay: Cytotoxicity against human LO2 cells at 2 to 256 uM measured after 24 hrs by CCK-8 method; type: toxicity, cell-based; details: l02, 24 h, dose 2-256 µM
Staphylococcus aureus [11] = assay: Bactericidal activity against multi-drug resistant Staphylococcus aureus assessed as eradication of bacterial growth at 2 times MIC measured after 3 hrs by time-kill kinetic assay relative to control; type: functional
Cell membrane [12] = assay: Disruption of cell membrane in multi-drug resistant Escherichia coli assessed as appearance of cell shrinkage at 2 times MIC measured for 120 mins by transmission electron microscopy analysis; type: subcellular
Staphylococcus aureus [13] = assay: Antimicrobial activity against multi-drug resistant Staphylococcus aureus assessed as reduction in bacterial growth by broth dilution method; type: functional
Cell membrane [14] = assay: Disruption of cell membrane in multi-drug resistant Staphylococcus aureus assessed as release of cell content at 2 times MIC measured for 120 mins by transmission electron microscopy analysis; type: subcellular
Escherichia coli [15] = assay: Antimicrobial activity against multi-drug resistant Escherichia coli assessed as reduction in bacterial growth in presence of MgCl2; type: functional, organism-based
Escherichia coli [16] = assay: Antibacterial activity against multidrug resistant Escherichia coli infected in male Kunming mouse model assessed as reduction in epidermal thickening in presence of levofloxacin by H and E staining based analysis; type: functional, organism-based
Staphylococcus aureus [17] = assay: Antimicrobial activity against multi-drug resistant Staphylococcus aureus assessed as reduction in bacterial growth at 2 times MIC measured after 1 hrs in presence of trypsin by microplate reader based analysis; type: functional, organism-based
Escherichia coli [18] = assay: Antimicrobial activity against multi-drug resistant Escherichia coli assessed as reduction in bacterial growth measured after 6 hrs in 25% plasma; type: functional, organism-based
Staphylococcus aureus [19] = assay: Antibiofilm activity in methicillin-resistant Staphylococcus aureus assessed as eradication of formed biofilm by measuring reduction in viable bacterial count measured after 12 hrs by confocal microscopy based analysis; type: functional, organism-based
Escherichia coli [20] = assay: Antibacterial activity against multidrug resistant Escherichia coli infected in male Kunming mouse model assessed as reduction in wound size measured after 3 to 5 days by caliper method; type: functional, organism-based; details: time 3-5 day
Escherichia coli [21] = assay: Antibacterial activity against multidrug resistant Escherichia coli infected in male Kunming mouse model assessed as reduction in tissue hemorrhage by H and E staining based analysis; type: functional, organism-based
Escherichia coli [22] = assay: Antibiofilm activity against multi-drug resistant Escherichia coli at 0.5 times MIC measured after 24 hrs by crystal violet staining based analysis; type: functional, organism-based
Cell membrane [23] = assay: Disruption of cell membrane in multi-drug resistant Staphylococcus aureus assessed as increase in red fluorescence intensity of PI at 2 times MIC measured for 2 hrs by fluorescence confocal microscopic imaging based analysis; type: subcellular
Staphylococcus aureus [24] = assay: Antimicrobial activity against Staphylococcus aureus ATCC 25923 assessed as reduction in bacterial growth by broth dilution method; type: functional
Cell membrane [25] = assay: Disruption of cell membrane in multi-drug resistant Staphylococcus aureus assessed as stomatal formation at 2 times MIC measured for 120 mins by transmission electron microscopy analysis; type: subcellular
Escherichia coli [26] = assay: Bactericidal activity against multi-drug resistant Escherichia coli assessed as eradication of bacterial growth at 2 times MIC by time-kill kinetic assay; type: functional, organism-based; details: time 120-720 min
Escherichia coli [27] = assay: Antibiofilm activity against multi-drug resistant Escherichia coli measured after 24 hrs by crystal violet staining based analysis; type: functional, organism-based
Staphylococcus aureus [28] = assay: Antimicrobial activity against multi-drug resistant Staphylococcus aureus assessed as reduction in bacterial growth in presence of KCl; type: functional, organism-based
Escherichia coli [29] = assay: Antibacterial activity against multidrug resistant Escherichia coli infected in male Kunming mouse model assessed as wound healing measured after 11 days by caliper method relative to control; type: functional; details: time 11 day

Structure (SMILES): CC[C@H](C)[C@H](NC(=O)[C@H](CCCCN)NC(=O)[C@@H](NC(=O)[C@H](CCCCN)NC(=O)[C@@H]1CCCN1C(=O)[C@H](Cc1c[nH]c2ccccc12)NC(=O)[C@H](Cc1c[nH]c2ccccc12)NC(=O)[C@H](Cc1c[nH]c2ccccc12)NC(=O)[C@@H]1CCCN1C(=O)[C@H](CCCCN)NC(=O)[C@@H](NC(=O)[C@H](CCCCN)NC(=O)[C@@H](NC(=O)[C@@H](N)CCCCN)[C@@H](C)CC)[C@@H](C)CC)[C@@H](C)CC)C(=O)N[C@@H](CCCCN)C(N)=O (H-KIKIKPWWWPKIKIK-NH2)
- Activity (Escherichia coli [1]): Active
- MIC [2]: 4 µM (≈ 7.97 µg/mL)
- Activity (Escherichia coli [3]): Active
- Activity (Escherichia coli [4]): Active
- Activity (Cell membrane [5]): Active
- Activity (Escherichia coli [6]): Active
- Activity (Staphylococcus aureus [7]): inactive
- Activity (Cell membrane [8]): Active
- Activity (Escherichia coli [9]): Active
- Activity (Staphylococcus aureus [10]): Active
- Activity (L02): Toxic
- Activity (Staphylococcus aureus [11]): 100%
- Activity (Cell membrane [12]): Active
- MIC (Staphylococcus aureus [13]): 8 µM (≈ 15.9 µg/mL)
- Activity (Cell membrane [14]): Active
- Activity (Escherichia coli [15]): Active
- Activity (Escherichia coli [16]): inactive
- Activity (Staphylococcus aureus [17]): inactive
- Activity (Escherichia coli [18]): Active
- Activity (Staphylococcus aureus [19]): Dose-dependent-effect
- Activity (Escherichia coli [20]): Active
- Activity (Escherichia coli [21]): Active
- Activity (Escherichia coli [22]): Active
- Activity (Cell membrane [23]): Active
- MIC (Staphylococcus aureus [24]): 8 µM (≈ 15.9 µg/mL)
- Activity (Cell membrane [25]): Active
- Activity (Escherichia coli [26]): Time-dependent-effect
- Activity (Escherichia coli [27]): Dose-dependent-effect
- Activity (Staphylococcus aureus [28]): Active
- Activity (Escherichia coli [29]): 100%
